Laboratory results published in patent US11613538B2, “Method of inhibiting or reducing a viral infection” (PTC Therapeutics, Inc., priority 2009, dated 2023).
Entries after “also recorded” stand apart in the source; their conditions may differ.

Tests used:
[1] = system: hypoxia-induced VEGF production in HeLa cells; assay: cells; assay type: cell-based, human; details: Homo sapiens, HeLa
[2] = system: HT1080 xenografts; assay: HT1080 xenograft tumor growth in male athymic nude mice; assay type: in vivo; details: study #24a; 10 mg/kg QD; in words
Source text: Experimental Design. HT1080 cells (5×10^6 cells/mouse) were implanted subcutaneously in male athymic nude mice. […] For comparison, Compound #10 was included in this study.

[3] = system: VEGF production in tumor cells; assay: VEGF production in tumor cells (data not shown); assay type: cell-based; details: in words
Source text: In addition to its effects on pathological VEGF production, a Compound provided herein provokes a late GI/early S-Phase cell cycle delay, i.e., between the late resting or pre-DNA synthesis phase, and the early DNA synthesis phase in those tumor cell lines in which VEGF generation is decreased by the Compound. See Section 8.3. […] The cell cycle delay and inhibition of pathological VEGF protein production occur in concert, linking these phenotypes in inflammation, pathological angiogenesis and tumor growth. […] Thus, these experiments indicate that the effects of the Compound on the tumor cell cycle occur in parallel with its actions on pathological VEGF production in tumors.

[4] = system: 786-O cells; assay: 786-O renal cell carcinoma xenograft (VHL-negative), tumor volume; assay type: in vivo, mice; details: for Median time for tumors to reach 1000 mm^3: Compound #10 10 mg/kg QD PO, time on study used if not reached; for Median time for tumors to reach 1000 mm^3 / Tumors smaller than those in vehicle-treated mice: sunitinib 75 mg/kg QD PO, rapamycin 15 mg/kg PO; for Tumors smaller than those in vehicle-treated mice: Day 57, Compound #10 10 mg/kg QD PO
Description: Both sunitinib and rapamycin are used clinically for treatment of renal cancer.
(§1) A total of 100 mice were injected, of which 60 were used in the study.
Groups were taken off study when the mean tumor volume in a group was 1300 mm^3 or more. Vehicle-treatment started on Day 0 and continued through Day 57. Compound #10-treatment started on Day 0 and continued through Day 88.
(§2) Tumors were measured twice per week using digital calipers.
The time to progression to reach a tumor volume 1000 mm^3 was calculated for each mouse. The median values were reported.

[5] = system: Caki-1 cells; assay: Caki-1 renal cell carcinoma xenograft (VHL-positive), tumor volume; assay type: in vivo, mice; details: for Median time for tumors to reach 1000 mm^3: Compound #10 10 mg/kg QD PO; for Median time for tumors to reach 1000 mm^3 / Tumors smaller than those in vehicle-treated mice: sunitinib 75 mg/kg QD PO, rapamycin 15 mg/kg PO; for Tumors smaller than those in vehicle-treated mice: Day 35, Compound #10 10 mg/kg QD PO
Description: The Caki-1 cell line expresses the von Hippel-Lindau (VHL) protein which acts as a tumor suppressor by promoting the rapid degradation of HIF-1α (hypoxia-inducible factor 1α) under normoxia. Under hypoxic conditions, HIF-1α is stabilized and activated by the inability of VHL to act resulting in increased transcription of VEGF that is responsible for the high vascularization of RCC (see Turcotte et al, 2003, Zimmer et al, 2004).
as §1
Groups were taken off study when the mean tumor volume in a group was 1300 mm^3 or more. Vehicle-treatment started on Day 0 and continued through Day 35. Compound #10-treatment started on Day 0 and continued through Day 52.
as §2
[…] The median values were reported.

[6] = Caki-1 xenograft study: body weight and clinical observations; assay type: in vivo, mice; details: Caki-1 study
Source text: Body Weight: The mice were weighed once per week.

[7] = mouse, in vivo
[8] = 786-O xenograft study: body weight and clinical observations; details: 786-O study

SMILES	EC50 [1] [nM]	further results
O=C(Oc1ccc(Cl)cc1)N1CCc2c([nH]c3ccc(Cl)cc23)[C@H]1c1ccc(OCC[C@H](O)CO)cc1 [Compound 1330]	> 1000	Growth of HT1080 tumors in vivo (FIG. 4) [2]: overlapped with the growth of tumors in mice treated with 0.5% HPMC vehicle
CCC(CO)(CO)COc1ccc([C@H]2c3[nH]c4ccc(Cl)cc4c3CCN2C(=O)OCC2CCCC2)cc1 [Compound 1687]	< 8	–
COc1ncc(C2NCCc3c2[nH]c2ccc(Cl)cc32)cn1 (stereo not drawn) [Compound 1688]	> 1000	–
COc1ncc(C2c3[nH]c4ccc(Cl)cc4c3CCN2C(=O)Oc2ccc(Cl)cc2)cn1 (stereo not drawn) [Compound 1689]	8 to 40	–
COc1ncc(C2c3[nH]c4ccc(Cl)cc4c3CCN2C(=O)Oc2ccc(F)cc2)cn1 (stereo not drawn) [Compound 1690]	8 to 40	–
CCOC(=O)N1CCc2c([nH]c3ccc(Cl)cc23)C1c1cnc(OC)nc1 (stereo not drawn) [Compound 1691]	40 to 200	–
CC#CCOC(=O)N1CCc2c([nH]c3ccc(Cl)cc23)C1c1cnc(OC)nc1 (stereo not drawn) [Compound 1692]	8 to 40	–
O=C(OCCN1CCOCC1)N1CCC(Oc2ccc([C@H]3c4[nH]c5ccc(Cl)cc5c4CCN3C(=O)Oc3ccc(Cl)cc3)cc2)CC1 [Compound 1693]	< 8	–
CN1CCC(Oc2ccc([C@H]3c4[nH]c5ccc(Cl)cc5c4CCN3C(=O)Oc3ccc(Cl)cc3)cc2)CC1 [Compound 1694]	< 8	–
CCOC(=O)N1CCc2c([nH]c3ccc(Cl)cc23)[C@@H]1c1ccc(OC2OC(CO)C(O)C(O)C2O)cc1 (stereo partly drawn) [Compound 1696]	> 1000	–
CC#CCOC(=O)N1CCc2c([nH]c3ccc(Cl)cc23)[C@@H]1c1ccc(OC2CCN(C[C@H](O)CO)CC2)cc1 [Compound 1697]	< 8	–
CCOC(=O)N1CCc2c([nH]c3ccc(Cl)cc23)[C@@H]1c1ccc(OC2COC2)cc1 [Compound 1699]	< 8	–
CCOC(=O)N1CCc2c([nH]c3ccc(Cl)cc23)[C@@H]1c1ccc(Oc2ncc(CS(C)(=O)=O)s2)cc1 [Compound 1700]	< 8	–
O=C(Oc1ccc(Cl)cc1)N1CCc2c([nH]c3ccc(Cl)cc23)[C@@H]1c1ccc(OC2CCN(CC[C@H](O)CO)CC2)cc1 [Compound 1703]	200 to 1000	–
O=C(Oc1ccc(Cl)cc1)N1CCc2c([nH]c3ccc(Cl)cc23)[C@@H]1c1ccc(OC2CCN(C[C@H](O)CO)CC2)cc1 [Compound 1704]	8 to 40	–
CC#CCOC(=O)N1CCc2c([nH]c3ccc(Cl)cc23)[C@@H]1c1ccc(OC2CCN(CC[C@H](O)CO)CC2)cc1 [Compound 1705]	40 to 200	–
CCNC(=O)C(=O)N1CCc2c([nH]c3ccc(Cl)cc23)C1c1ccc(OC)cc1 (stereo not drawn) [Compound 1706]	40 to 200	–
COc1ccc(C2c3[nH]c4ccc(Cl)cc4c3CCN2C(=O)C(=O)NC(C)C)cc1 (stereo not drawn) [Compound 1707]	40 to 200	–

SMILES	EC50 [1] [nM]	further results
CCCNC(=O)C(=O)N1CCc2c([nH]c3ccc(Cl)cc23)C1c1ccc(OC)cc1 (stereo not drawn) [Compound 1708]	200 to 1000	–
COc1ccc(C2c3[nH]c4ccc(Cl)cc4c3CCN2C(=O)C(=O)NC2CCCC2)cc1 (stereo not drawn) [Compound 1710]	40 to 200	–
COc1ccc(C2c3[nH]c4ccc(Cl)cc4c3CCN2C(=O)C(=O)Nc2ccc(Cl)cc2)cc1 (stereo not drawn) [Compound 1711]	8 to 40	–
COc1ccc(C2c3[nH]c4ccc(Cl)cc4c3CCN2C(=O)C(=O)Nc2ccc(C)cc2)cc1 (stereo not drawn) [Compound 1712]	8 to 40	–
COc1ccc(C2c3[nH]c4ccc(Cl)cc4c3CCN2C(=O)C(=O)Nc2ccc(F)cc2)cc1 (stereo not drawn) [Compound 1713]	40 to 200	–
COc1ccc(C2c3[nH]c4ccc(Cl)cc4c3CCN2C(=O)C(=O)Nc2ccc(C#N)cc2)cc1 (stereo not drawn) [Compound 1716]	200 to 1000	–
COc1ccc(C2c3[nH]c4ccc(Cl)cc4c3CCN2C(=O)C(=O)OCC2CC2)cc1 (stereo not drawn) [Compound 1717]	8 to 40	–
COc1ccc(C2c3[nH]c4ccc(Cl)cc4c3CCN2C(=O)C(=O)OCC2CCC2)cc1 (stereo not drawn) [Compound 1718]	8 to 40	–
COc1ccc(C2c3[nH]c4ccc(Cl)cc4c3CCN2C(=O)C(=O)OC2CCCC2)cc1 (stereo not drawn) [Compound 1719]	> 1000	–
COc1ccc(C2c3[nH]c4ccc(Cl)cc4c3CCN2C(=O)C(=O)Oc2ccc(Cl)cc2)cc1 (stereo not drawn) [Compound 1720]	> 1000	–
COc1ccc(C2c3[nH]c4ccc(Cl)cc4c3CCN2C(=O)C(=O)Oc2ccc(C)cc2)cc1 (stereo not drawn) [Compound 1721]	> 1000	–
COc1ccc(C2c3[nH]c4ccc(Cl)cc4c3CCN2C(=O)C(=O)Oc2ccc(F)cc2)cc1 (stereo not drawn) [Compound 1722]	> 1000	–
COc1ccc(OC(=O)C(=O)N2CCc3c([nH]c4ccc(Cl)cc34)C2c2ccc(OC)cc2)cc1 (stereo not drawn) [Compound 1723]	> 1000	–
COc1ccc(C2c3[nH]c4ccc(Cl)cc4c3CCN2C(=O)C(=O)Oc2ccccc2)cc1 (stereo not drawn) [Compound 1724]	> 1000	–
NC(Cn1ccc(=O)c(O)c1)C(=O)O (stereo not drawn) [mimosine]	–	Effect on VEGF production [3]: does not reduce VEGF production
CO[C@H]1C[C@@H]2CC[C@@H](C)[C@@](O)(O2)C(=O)C(=O)N2CCCC[C@H]2C(=O)O[C@H]([C@H](C)C[C@@H]2CC[C@@H](O)[C@H](OC)C2)CC(=O)[C@H](C)/C=C(\C)[C@@H](O)[C@@H](OC)C(=O)[C@H](C)C[C@H](C)/C=C/C=C/C=C/1C [rapamycin]	–	Median time for tumors to reach 1000 mm^3 [4]: 87 days; Tumors smaller than those in vehicle-treated mice [4]: 49%; Tumor size (mean±SD) ([4]; Day 93, 15 mg/kg PO): 1715±393 mm^3; Median time for tumors to reach 1000 mm^3 [5]: 43 days; Tumors smaller than those in vehicle-treated mice [5]: 60%; Tumor size (mean±SD) ([5]; Day 63, 15 mg/kg PO): 1689±1081 mm^3; Body weight loss ([6]; Day 8): 4.3%; Body weight loss ([6]; Day 14): 5.8%; Mice of the treatment group that had died ([6]; by Day 65): 6 of the 10 mice; Body weight change from initial body weight ([6]; in words): transiently lost weight; Individual mice found dead or sacrificed ([6]; in words): found dead on Day 14; also recorded: found dead on Day 62; also recorded: found dead on Day 63; Mice of the treatment group that had died or were sacrificed due to sickness [7]: 1 of the 10 mice; Body weight loss ([8]; Day 7): 2.4%; Body weight loss ([8]; Day 14): 2.8%; Survival of treated mice ([8]; all mice, in words): survived until sacrificed; Body weight change from initial body weight ([8]; in words): transiently lost weight
CCN(CC)CCNC(=O)c1c(C)[nH]c(/C=C2\C(=O)Nc3ccc(F)cc32)c1C [sunitinib]	–	Median time for tumors to reach 1000 mm^3 [4]: 119 days; Tumors smaller than those in vehicle-treated mice [4]: 83%; Tumor size (mean±SD) ([4]; Day 119, 75 mg/kg QD, PO): 709938 mm^3; Median time for tumors to reach 1000 mm^3 [5]: 66 days; Tumors smaller than those in vehicle-treated mice [5]: 66%; Tumor size (mean±SD) ([5]; Day 98, 75 mg/kg QD, PO): 1494±1150 mm^3; Clinical observation: skin ([6]; from Day 8 onward, all mice, in words): yellow-tinged skin; Body weight change from initial body weight ([6]; in words): transiently lost weight; Individual mice found dead or sacrificed ([6]; in words): sacrificed on Day 4; also recorded: found dead on Day 17; also recorded: found dead on Day 95; Mice of the treatment group that had died or were sacrificed due to sickness [7]: 1 of the 10 mice; Survival of treated mice ([8]; all mice, in words): survived until sacrificed; Clinical observation: skin ([8]; from Day 7 onward, all mice, in words): yellow-tinged skin; Body weight change from initial body weight ([8]; in words): transiently lost weight
